# Results: patent US9682070B2, “Method and compositions for treatment or prevention of inflammatory conditions” (University of Rochester, priority 2007, dated 2017)
# “Also recorded” adds a separate entry of the source.
# Experiments:
# [1] = tested on: IκBα phosphorylation and degradation; experiment: Western blot of TNFα-induced IκBα phosphorylation and degradation in VSMCs; format: cell-based; details: rat aortic VSMCs; TNFα 10 ng/ml; vinpocetine 50 μM, nifedipine 30 μM, IC86340 15 μM, EGTA 2 mM, BAPTA/AM 30 μM
# Experimental: (§1) Rat aortic VSMCs were treated with TNFα (10 ng/ml) for different time periods (0-30 minutes) as indicated in the presence or absence of vinpocetine ([…]). Western Blotting analysis was carried out to evaluate the levels of phosphorylated IκBα, total IκBα- and β-actin. […] IKK kinase activity was analyzed by an immune complex kinase assay. […] VSMCs were treated with TNFα for 10 min in the presence of various doses of vinpocetine as indicated. FIG. 8D illustrates the relative IKK activity as indicated. Intensities of the GST-IκBα bands in the autoradiogram were measured by densitometric scanning. Results were normalized to the control ([vinpocetine]=0) that is arbitrarily set to 100%. *p<0.05, **p<0.01 vs. vitipocetine at zero. FIGS. 8E-H illustrate the effects of vinpocetine on NF-κB activation induced by expressing constitutive active form of either MEKK1 (CA-MEKK1) (FIG. 8E), IKKα (CA-IKKα) (FIG. 8F), IKKβ (CA-IKKβ) (FIG. 8G), or WT p65 (FIG. 8H) in VSMCs.
# (§2) Rat aortic VSMCs were treated with TNFα (10 ng/ml) for 10 minutes in the presence of either 50 μM vinpocetine, 30 μM nifedipine (Ca^2+ channel blocker), 15 μM IC86340 (PDE1 inhibitor), 2 mM EGTA (extracellular Ca^2+ chelator), or 30 μM BAPTA/AM (intracellular Ca^2+ chelator). […] Western Blotting analysis was carried out to evaluate the levels of phosphorylated IκBα total IκBα and β-actin. Data represent at least three independent experiments.
# Cells lysates were prepared in the buffer containing 20 mM Tris-HCl (pH8.0), 0.5 M NaCl, 0.25% Triton X-100, 1 mM EDTA, 1 mM EGTA, 10 mM-glycerophosphate, 10 mM NaF, 100 μM Na3VO4, 1 mM benzamidine, 2 μM PMSF, 1 mM DTT and protease inhibitor cocktail (Sigma, MO. USA), by scraping, sonication, and centrifugation at 12,000 g for 15 min. Supernatant were collected and then subjected to SDS-PAGE and Western blot analysis with indicated antibodies.
# IKK [2] = experiment: IKK immune complex kinase assay from TNFα-treated VSMCs; format: cell-based, rat; details: for effect on the ability of vinpocetine on IKK kinase activity, IκB phosphorylation, IκB degradation or NF-κB-dependent transcriptional activity: co-treatment with vinpocetine; for TNFα-induced IKK kinase activity: rat aortic VSMCs treated with TNFα 10 min in the presence of compound
# Experimental: as §1, §2
# Cell lysates were prepared as described above. 1 mg of cell lysates were incubated with 1-2 μg of anti-IKKα (Santa Cruz, Calif., USA) for 1-2 h, followed by 50μl of 50% of slurry protein A/G plus-Agarose for another 1 h or overnight at 4° C. Immunoprecipitants were then washed two times with lysis buffer and once with kinase buffer without ATP. In vitro kinase assay were performed in kinase buffer containing 20 mM HEPES (pH 7.7), 2 mM MgCl2, 2 mM MnCl2, 10 μM ATP, 5 μCi of [γ-^32P]ATP (Amersham Biosciences, NJ, USA), 10 mM glycerophosphate, 10 mM NaF, 100 μM Na3VO4, 1 mM benzamidine, 2 μM PMSF, 1 mM DTT and protease inhibitor cocktail (Sigma, MO, USA) at 30° C. for 30-60 min, in the presence of substrate GST-IκBα (AA 1-54) (kindly provided by Dae-Myung Jue, Catholic University of Korea). Proteins were separated by 12% SDS-PAGE and subjected to autoradiography. Phosphorylation of GST-IκBα was quantified in NIH Image 1.60.
# Because IKK is known as the major upstream kinase for IκBα phosphorylation and degradation, whether vinpocetine inhibits IκB phosphorylation and degradation via inhibition of IKK was determined. TNFα-induced activation of IKK was confirmed by performing IKK kinase assay in TNFα-stimulated VSMCs. The crude cell lysates from treated VSMCs were first immunoprecipitated with an anti-IKKα antibody and IKK kinase activity was then measured in vitro with IKK immune complexes incubated with the substrate GST-IκBα in the presence of [γ-^32P]-ATP.
# [3] = tested on: NF-κB-dependent promoter activity; experiment: NF-κB-Luc dual luciferase reporter assay in rat aortic VSMCs
# [4] = tested on: TNFα-induced lung inflammation; experiment: Mouse model of lung inflammation induced by TNFα; format: in vivo; details: mice; TNFα i.t. (500 ng per mouse)
# Experimental: Lung tissues were collected and then stored at -80° C. for mRNA expression analysis. For polymorphonuclear neutrophil (PMN) recruitment analysis, broncho-alveolar lavage (BAL) was performed by cannulating the trachea with sterilized PBS, and cells from BAL was stained with Hemacolor (EM Science) after cytocentrifugation (Shandon Cytospin4, Thermo Electronic Co.). Three mice were used for each inoculation group. All animal experiments were approved by the institutional Animal Care and Use Committee at University of Rochester.
# [5] = patients, literature; cited from earlier work
# IKK [6] = experiment: In vitro IKK kinase assay, compound applied directly to the IKK immune complex; format: biochemical, rat; details: IKK immune complex in the test tube
# IKK [7] = experiment: In vitro IKK kinase assay in the presence of cell lysates from vinpocetine-treated VSMCs; format: biochemical, rat
# Experimental: Intensities of the GST-IκBα bands in the autoradiogram were measured by densitometric scanning.
# [8] = tested on: cell morphology and viability; experiment: Cytotoxic effects on cell morphology and viability; format: cell-based; details: at the tested doses
# [9] = tested on: U937 monocytes adhering to HUVECs; experiment: Monocyte adhesion assay; format: cell-based, human; details: 50 μM vinpocetine 30 min, then TNFα 10 ng/ml 6 hours
# NF-κB activation = experiment: NF-κB luciferase activity induced by CA-MEKK1, CA-IKKα, CA-IKKβ or WT p65 in VSMCs; format: cell-based, rat
# [10] = tested on: monocyte chemotaxis to VSMCs; experiment: Monocyte chemotaxis assay (transwell migration, Boyden chamber); format: cell-based, rat; details: various doses; TNFα 10 ng/ml 9 hours; VSMC-conditional medium
# [11] = tested on: LPS-induced lung inflammation; experiment: Mouse model of lung inflammation induced by LPS; format: in vivo; details: mice
# [12] = tested on: pro-inflammatory mediators at mRNA levels; experiment: Q-PCR of TNFα-induced pro-inflammatory mediators in A549 cells; format: cell-based, human; details: TNFα 10 ng/ml 6 hours, vinpocetine 50 μM
# Experimental: (§3) Expression of TNFα, IL-1β, IL-8, MCP-1 and VCAM-1, ICAM-1, MIP-1 at mRNA levels were measured by Real-time quantitative RT-PCR (Q-PCR).
# (§4) Total RNA was isolated with TRIzol reagent (Invitrogen) by following the manufacturer's instructions. For the reverse transcription reaction, TaqMan reverse transcription reagents (Applied Biosystems) were used. In brief, the reverse transcription reaction was performed for 60 min at 37° C., followed by 60 min at 42° C. by using oligo (dT) and random hexamers. PCR amplifications were performed by using SYBR Green Universal Master Mix. In brief, reactions were performed in duplicate containing 2× Universal Master Mix, 1 μl of template cDNA and 100 nM primers in a final volume of 12.5 μl, and they were analyzed in a 96-well optical reaction plate (Applied Biosystems). The relative quantities of mRNAs were obtained by using the comparative Ct method and were normalized with predeveloped Taqman assay reagent rat or mouse glyceraldehydes-3-phosphate dehydrogenase or human cyclophilin as an endogenous control (Applied Biosystems).
# [13] = tested on: NF-κB-dependent promoter activity; experiment: IL-1- and LPS-induced NF-κB-dependent promoter activity; format: cell-based
# [14] = tested on: pro-inflammatory mediators at mRNA levels; experiment: Q-PCR of TNFα-induced pro-inflammatory mediators in HUVECs; format: cell-based, human; details: TNFα 10 ng/ml 6 hours, vinpocetine 50 μM
# Experimental: as §3, §4
# [15] = tested on: pro-inflammatory mediators at mRNA levels; experiment: Q-PCR of TNFα-induced pro-inflammatory mediators in RAW264.7; format: cell-based, mouse; details: TNFα 10 ng/ml 6 hours, vinpocetine 50 μM
# Experimental: as §3, §4
# [16] = tested on: pro-inflammatory mediators at mRNA levels; experiment: Q-PCR of TNFα-induced pro-inflammatory mediators in rat aortic VSMCs; format: cell-based; details: TNFα 10 ng/ml 6 hours, vinpocetine 50 μM
# Experimental: as §3, §4
smiles,measurement,setting,value
CC(=O)OCOC(=O)CN(CC(=O)OCOC(C)=O)c1ccccc1OCCOc1ccccc1N(CC(=O)OCOC(C)=O)CC(=O)OCOC(C)=O [BAPTA/AM],TNFα-induced IκBα phosphorylation and degradation,[1],none of them exhibited any significant inhibitory effects
same,"effect on the ability of vinpocetine on IKK kinase activity, IκB phosphorylation, IκB degradation or NF-κB-dependent transcriptional activity",IKK [2],did not significantly affect
same,TNFα-induced IKK kinase activity,IKK [2],none of them exhibited any significant inhibitory effects
O=C(O)CN(CCOCCOCCN(CC(=O)O)CC(=O)O)CC(=O)O [EGTA],TNFα-induced IκBα phosphorylation and degradation,[1],none of them exhibited any significant inhibitory effects
same,"effect on the ability of vinpocetine on IKK kinase activity, IκB phosphorylation, IκB degradation or NF-κB-dependent transcriptional activity",IKK [2],did not significantly affect
same,TNFα-induced IKK kinase activity,IKK [2],none of them exhibited any significant inhibitory effects
NC1=N[C@H](O)[C@H]2[C@H]3O[C@]4(O)O[C@@H]([C@@H](O)[C@@]2(N1)[C@@H]4O)[C@]3(O)CO [tetrodotoxin],effect on the effect of vinpocetine on NF-κB-dependent transcription,[3],did not alter
"CCOC(=O)C1=C[C@]2(CC)CCCN3CCc4c(n1c1ccccc41)[C@@H]32 [vinpocetine, (+)-vinpocetine]",induction of inflammatory mediators and PMN infiltration in the lungs,[4],also inhibited
same,"side effects, toxicity or contraindications at the therapeutic doses",[5],"no reports of significant side effects, toxicity or contraindications"
same,"IKK activity, compound directly applied to IKK",IKK [6],No significant inhibitory effect; also recorded: did not inhibit IKK activity
same,inhibition of IKK activity by cell lysates from vinpocetine-treated cells,IKK [7]; cell lysates,50%
same,vinpocetine treatment concentration of lysate required for a significant effect on IKK inhibition ex vivo,IKK [7]; cell lysates,100 µM
same,IKK activity in the presence of cell lysates from vinpocetine-treated cells,IKK [7]; lysates of VSMCs preincubated with vinpocetine,inhibited IKK activity
same,cytotoxic effects on cell morphology and viability,[8],no significant cytotoxic effects
same,TNFα-induced IκBα phosphorylation and degradation,[1],markedly inhibited
same,TNFα-induced NF-κB-dependent promoter activity,"[3]; rat aortic VSMCs, TNFα 10 ng/ml 6 hours, various doses",potently inhibited
same,monocyte adhesion to HUVECs,[9],markedly inhibited
same,NF-κB activation induced by CA-IKKα,NF-κB activation; constitutively active IKKα,inhibited
same,NF-κB activation induced by CA-IKKβ,NF-κB activation; constitutively active IKKβ,inhibited
same,CA-MEKK1-induced NF-κB activation,NF-κB activation; constitutively active MEKK1,significantly inhibited
same,monocyte chemotaxis to VSMCs induced by TNFα,[10],inhibited monocyte chemotaxis to VSMCs induced by TNFα in a dose-dependent manner
same,"induction of TNFα, IL-1β and MIP-2 mRNA in the lungs","[11]; LPS 2 μg/mouse i.t., vinpocetine 2.5, 5, 10 mg/kg i.p.",dose-dependently inhibited; also recorded: significantly inhibited
same,PMN infiltration in BAL fluids,"[11]; LPS i.t., vinpocetine 10 mg/kg i.p.",significantly inhibited
same,"TNFα-induced expression of TNFα, IL-1β and IL-8 mRNA",[12],inhibit
same,IL-1- and LPS-induced NF-κB-dependent promoter activity,[13],inhibited
same,"TNFα-induced expression of TNFα, IL-1β, IL-8, MCP-1, VCAM-1 and ICAM-1 mRNA",[14],inhibit
same,"TNFα-induced expression of TNFα, IL-1β and MIP-2 mRNA",[15],inhibit
same,"TNFα-induced expression of TNFα, IL-1β, IL-8, MCP-1 and VCAM-1 mRNA",[16],potently inhibited
same,TNFα-induced IKK kinase activity,IKK [2],inhibited TNFα-induced IKK activity in a dose-dependent manner
